Values quoted from earlier work in article PMC5778071, “Development of matrix metalloproteinase-targeted probes for lung inflammation detection with positron emission tomography” (Scientific Reports, 2018).

Set-up: method as in PMID 25822732
Conditions: cited from earlier work

CC(C)C[C@H](CC(=O)NO)C(=O)N[C@@H](Cc1ccccc1)C(=O)N[C@@H](CCCCNC(=O)c1ccc([18F])cc1)C(N)=O [^18F-FB-ML5]
accumulation ratio of lung to liver: < 0.1
